How the values were obtained:
Assay type in all cases: functional
MDA-MB-468 = test: Growth inhibition of human MDA-MB-468 cells at 10 uM after 48 hrs by sulforhodamine B assay; conditions: MDA-MB-468, 48 h, read-out: GI
DU-145 = test: Growth inhibition of human DU145 cells at 10 uM after 48 hrs by sulforhodamine B assay; conditions: DU-145, 48 h, read-out: GI
PC-3 = test: Growth inhibition of human PC3 cells at 10 uM after 48 hrs by sulforhodamine B assay; conditions: PC-3, 48 h, read-out: GI
A549 = test: Growth inhibition of human A549/ATCC cells at 10 uM after 48 hrs by sulforhodamine B assay; conditions: A549, 48 h, read-out: GI
CAKI-1 = test: Growth inhibition of human CAKI-1 cells at 10 uM after 48 hrs by sulforhodamine B assay; conditions: CAKI-1, 48 h, read-out: GI
HCT-15 = test: Growth inhibition of human HCT15 cells at 10 uM after 48 hrs by sulforhodamine B assay; conditions: HCT-15, 48 h, read-out: GI
BT-549 = test: Growth inhibition of human BT549 cells at 10 uM after 48 hrs by sulforhodamine B assay; conditions: BT-549, 48 h, read-out: GI
M14 = test: Growth inhibition of human M14 cells at 10 uM after 48 hrs by sulforhodamine B assay; conditions: M14, 48 h, read-out: GI
SK-MEL-5 = test: Growth inhibition of human SK-MEL-5 cells at 10 uM after 48 hrs by sulforhodamine B assay; conditions: SK-MEL-5, 48 h, read-out: GI
COLO 205 = test: Growth inhibition of human COLO205 cells at 10 uM after 48 hrs by sulforhodamine B assay; conditions: COLO 205, 48 h, read-out: GI
786-0 = test: Growth inhibition of human 786-0 cells at 10 uM after 48 hrs by sulforhodamine B assay; conditions: 786-0, 48 h, read-out: GI
K562 = test: Growth inhibition of human K562 cells at 10 uM after 48 hrs by sulforhodamine B assay; conditions: K562, 48 h, read-out: GI
Malme-3M = test: Growth inhibition of human MALME-3M cells at 10 uM after 48 hrs by sulforhodamine B assay; conditions: read-out: GI
UACC-62 = test: Growth inhibition of human UACC62 cells at 10 uM after 48 hrs by sulforhodamine B assay; conditions: UACC-62, 48 h, read-out: GI
NCI/ADR-RES = test: Growth inhibition of human NCI/ADR-RES cells at 10 uM after 48 hrs by sulforhodamine B assay; conditions: read-out: GI
MDA-MB-231 = test: Growth inhibition of human MDA-MB-231/ATCC cells at 10 uM after 48 hrs by sulforhodamine B assay; conditions: MDA-MB-231, 48 h, read-out: GI

`CO[C@@H]1[C@@H](OC)N(S(=O)(=O)c2ccc(Cl)cc2)C(=O)N1S(=O)(=O)c1ccc(Cl)cc1` (relative stereo) gave an inhibition of growth at 10 µM (MDA-MB-468) of 6.61%, an inhibition of growth at 10 µM (DU-145) of -9.28% and an inhibition of growth at 10 µM (PC-3) of 29.8%. The inhibition of growth at 10 µM (A549) was 21.7%, the inhibition of growth at 10 µM (CAKI-1) was 67.5% and the inhibition of growth at 10 µM (HCT-15) was 19.8%. It also gave an inhibition of growth at 10 µM (BT-549) of 2.35%, an inhibition of growth at 10 µM (M14) of 6.23% and an inhibition of growth at 10 µM (SK-MEL-5) of -2.95%. For the same compound, the inhibition of growth at 10 µM (COLO 205) was -3.4%, the inhibition of growth at 10 µM (786-0) was 16.8% and the inhibition of growth at 10 µM (K562) was 23.2%. The inhibition of growth at 10 µM (Malme-3M) was 6.65%, the inhibition of growth at 10 µM (UACC-62) was 42.1% and the inhibition of growth at 10 µM (NCI/ADR-RES) was 13.8%. For the same compound, the inhibition of growth at 10 µM (MDA-MB-231) was 23.4%.
